Laboratory results published in patent US20130217681A1, “METHOD AND COMPOSITION FOR WEIGHT-GAIN MANAGEMENT” (TECHNION RESEARCH AND DEVELOPMENT FOUNDATION LTD., priority 2010, published 2013).
Where “and” joins values, the source holds several entries; their conditions need not be identical. Equal values may be shown once. Read-outs that look alike come from different tables or passages of the source.

Tests used:
[1] = in 10 weeks; cited from earlier work
[2] = baseline to endpoint, 6 weeks
Text: Human patients (male and female, age 18-45) hospitalized at Tirat Carmel Mental Health Center (Tirat Carmel, Israel) were screened. Eligible patients were interviewed using the Structured Clinical Interview for DSM-IV-TR Axis I Disorders, Patient Edition, and those who meet DSM-IV-TR criteria for schizophrenic or schizophreniform disorder were enrolled.
A double-blind, placebo-controlled, randomized design was used in the study.

[3] = cited from earlier work; for weight gain, mean (SD): olanzapine-treated patients, reboxetine 4 mg/day, 31 patients reboxetine, 29 placebo
[4] = betahistine in a small group (n=7) of olanzapine-treated first-episode schizophrenia patients; assay type: in vivo, Human
Text: Similarly, betahistine was associated with a modest attenuation of weight gain in a small group (n=7) of olanzapine-treated first-episode schizophrenia patients: the betahistine group 3.86 kg versus the placebo group 5.03 kg.
Similarly, betahistine was associated with a modest attenuation of weight gain in a small group (n=7) of olanzapine-treated first-episode schizophrenia patients: the betahistine group gained 3.86 kg versus the placebo group 5.03 kg.

[5] = test system: animal models of obesity; settings: cited from earlier work
[6] = olanzapine-treated first episode schizophrenia patients, cited from earlier work

Compound: Cc1cc2c(s1)Nc1ccccc1N=C2N1CCN(C)CC1 [olanzapine + placebo, olanzapine]
- weight gain induced in treated patients [1]: 3.5 kg
- change in triglyceride level [2]: almost two-fold increase
- patients who gained at least 7% of their initial weight (clinically significant weight gain) (6 week trial, 30 vs 13 patients): 46.1%
- weight gain during the trial, average (SD) (6 week trial, olanzapine 10 mg, betahistine 48 mg/day, reboxetine 4 mg, Example 1): 5.5 (2.7) kg
- body weight (Week 1): 70.4 kg
- increase in body weight, Δ from baseline (Week 1): 1.2 kg^
- body weight (Week 2): 71.3 kg
- increase in body weight, Δ from baseline (Week 2): 2.3 kg
- body weight (Week 3): 72 kg
- increase in body weight, Δ from baseline (Week 3): 3.8 kg
- body weight (Week 4): 73.4 kg
- increase in body weight, Δ from baseline (Week 4): 4.3 kg
- body weight (Week 5): 74.2 kg
- increase in body weight, Δ from baseline (Week 5): 5.4 kg
- body weight (Week 6): 75.4 kg
- increase in body weight, Δ from baseline (Week 6): 5.5 kg
- weight gain, mean (SD) [3]: 4.91 (2.45) kg

Compound: CNCCc1ccccn1 [betahistine]
- weight gain, mean (SD) [4]: 3.86 kg
- weight gain, mean (SD) ([4]; listed as Olanzapine+betahistine): 3.86 (0.9) kg
- food intake [5]: inhibit food intake
- tolerability [6]: safe, well tolerated
- effect on weight gain ([6]; small sample, open design): prevents weight gain

Compound: CCOc1ccccc1OC(c1ccccc1)C1CNCCO1 (centres unmarked) [reboxetine]
- weight-attenuating effect ([3]; low-dose 4 mg/day, schizophrenic patients treated with olanzapine): significant weight-attenuating effect
- weight gain, mean (SD) [3]: 3.31 (2.73) kg and 3.31 kg
- weight gain, mean (SD) ([3]; listed as Olanzapine+reboxetine): 3.31 (2.73) kg
- tolerability ([3]; reboxetine-olanzapine treated patients): safe and well tolerated and no clinically significant side effects were found
